Reference: PubChem BioAssay (NCI)
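48-hour exposure; five concentrations; linearly interpolated endpoints. TGI marks complete inhibition of growth.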

Key:
Experiment in all cases: DTP human tumour cell line panel, 48 h
[1] = test system: OVCAR-4 ovarian
[2] = test system: NCI-H522 lung
[3] = test system: PC-3 prostate
[4] = test system: ACHN renal
[5] = test system: SN12C renal
[6] = test system: KM12 colon
[7] = test system: SNB-75 CNS
[8] = test system: IGROV1 ovarian
[9] = test system: SK-MEL-5 melanoma
[10] = test system: OVCAR-8 ovarian
[11] = test system: CCRF-CEM leukemia
[12] = test system: TK-10 renal
[13] = test system: SF-295 CNS
[14] = test system: NCI-H226 lung
[15] = test system: HCT-116 colon
[16] = test system: CAKI-1 renal
[17] = test system: MCF7 breast
[18] = test system: A549 NSCLC
[19] = test system: HL-60(TB) leukemia
[20] = test system: MDA-N
[21] = test system: T-47D breast
[22] = test system: EKVX NSCLC
[23] = test system: SR leukemia
[24] = test system: MDA-MB-435
[25] = test system: BT-549 breast
[26] = test system: OVCAR-5 ovarian
[27] = test system: SK-OV-3 ovarian
[28] = test system: NCI/ADR-RES ovarian
[29] = test system: SNB-19 CNS
[30] = test system: NCI-H460 lung
[31] = test system: OVCAR-3 ovarian
[32] = test system: U251 CNS
[33] = test system: HOP-62 NSCLC
[34] = test system: UACC-257 melanoma
[35] = test system: HCT-15 colon
[36] = test system: MDA-MB-231 breast
[37] = test system: HS 578T breast
[38] = test system: SW-620 colon
[39] = test system: RPMI-8226 leukemia
[40] = test system: COLO 205 colon
[41] = test system: A498 renal
[42] = test system: SF-268 CNS
[43] = test system: HT29 colon
[44] = test system: M14 melanoma
[45] = test system: 786-0 renal
[46] = test system: UO-31 renal
[47] = test system: DU-145 prostate
[48] = test system: LOX IMVI melanoma
[49] = test system: MOLT-4 leukemia
[50] = test system: SK-MEL-28 melanoma
[51] = test system: HCC-2998 colon
[52] = test system: K-562 leukemia
[53] = test system: SK-MEL-2 melanoma
[54] = test system: RXF 393 renal
[55] = test system: NCI-H23 lung
[56] = test system: HOP-92 NSCLC
[57] = test system: MALME-3M melanoma
[58] = test system: UACC-62 melanoma
[59] = test system: SF-539 CNS

Work on OCCCNCC(O)c1ccc(OCc2ccccc2)c(OCc2ccccc2)c1 (stereo unspecified) yielded a TGI [1] of 18.3 µM, a TGI [2] of 30 µM and a TGI [3] of 25.4 µM. It also gave a TGI [4] of 23.8 µM, a TGI [5] of 29.7 µM and a TGI [6] of 26 µM. It also gave a TGI [7] of 14.1 µM, a TGI [8] of 23.4 µM and a TGI [9] of 13.5 µM. It also gave a TGI [10] of 26.6 µM, a TGI [11] of 17.5 µM and a TGI [12] of 15.8 µM. For the same compound, the TGI [13] was 20.8 µM, the TGI [14] was 29.7 µM and the TGI [15] was 18.3 µM. The TGI [16] was 32.5 µM, the TGI [17] was 16 µM and the TGI [18] was 26.3 µM. The TGI [19] was 21.4 µM, the TGI [20] was 21.6 µM and the TGI [21] was 34.4 µM. The TGI [22] was 30.4 µM, the TGI [23] was 28 µM and the TGI [24] was 15.2 µM. It also gave a TGI [25] of 31.9 µM, a TGI [26] of 29.5 µM and a TGI [27] of 24.4 µM. For the same compound, the TGI [28] was 37.2 µM, the TGI [29] was 38.5 µM and the TGI [30] was 15.8 µM. For the same compound, the TGI [31] was 30.4 µM, the TGI [32] was 23.1 µM and the TGI [33] was 28.8 µM. It also gave a TGI [34] of 25.6 µM, a TGI [35] of 27.5 µM and a TGI [36] of 28.7 µM. The TGI [37] was 35.6 µM, the TGI [38] was 15.8 µM and the TGI [39] was 19.9 µM. It also gave a TGI [40] of 10.2 µM, a TGI [41] of 25.8 µM and a TGI [42] of 30.9 µM. It also gave a TGI [43] of 16 µM, a TGI [44] of 31.5 µM and a TGI [45] of 14.3 µM. It also gave a TGI [46] of 28.8 µM, a TGI [47] of 30.8 µM and a TGI [48] of 13.7 µM. The TGI [49] was 19.2 µM, the TGI [50] was 20.4 µM and the TGI [51] was 10 µM. It also gave a TGI [52] of 33.5 µM, a TGI [53] of 15.1 µM and a TGI [54] of 42.7 µM. It also gave a TGI [55] of 33.3 µM, a TGI [56] of 24.1 µM and a TGI [57] of 29.7 µM. It also gave a TGI [58] of 42.8 µM and a TGI [59] of 27.2 µM.
Cn1c([N+](=O)[O-])cnc1CN1CCN(CCO)CC1 gave a TGI [1] greater than 100 µM, a TGI [2] greater than 100 µM and a TGI [3] greater than 100 µM. It also gave a TGI [4] greater than 100 µM, a TGI [5] greater than 100 µM and a TGI [6] greater than 100 µM. For the same compound, the TGI [7] was greater than 100 µM, the TGI [8] was greater than 100 µM and the TGI [9] was greater than 100 µM. The TGI [10] was greater than 100 µM, the TGI [11] was greater than 100 µM and the TGI [12] was greater than 100 µM. It also gave a TGI [13] greater than 100 µM, a TGI [14] greater than 100 µM and a TGI [15] greater than 100 µM. For the same compound, the TGI [16] was greater than 100 µM, the TGI [17] was greater than 100 µM and the TGI [18] was greater than 100 µM. For the same compound, the TGI [19] was greater than 100 µM, the TGI [20] was greater than 100 µM and the TGI [21] was greater than 100 µM. The TGI [22] was greater than 100 µM, the TGI [23] was greater than 100 µM and the TGI [24] was greater than 100 µM. For the same compound, the TGI [25] was greater than 100 µM, the TGI [26] was greater than 100 µM and the TGI [27] was greater than 100 µM. It also gave a TGI [28] greater than 100 µM, a TGI [29] greater than 100 µM and a TGI [30] greater than 100 µM. It also gave a TGI [31] greater than 100 µM, a TGI [32] greater than 100 µM and a TGI [33] greater than 100 µM. For the same compound, the TGI [34] was greater than 100 µM, the TGI [35] was greater than 100 µM and the TGI [36] was greater than 100 µM. It also gave a TGI [37] greater than 100 µM, a TGI [38] greater than 100 µM and a TGI [39] greater than 100 µM. It also gave a TGI [40] greater than 100 µM, a TGI [41] greater than 100 µM and a TGI [42] greater than 100 µM. For the same compound, the TGI [43] was greater than 100 µM, the TGI [44] was greater than 100 µM and the TGI [45] was greater than 100 µM. The TGI [46] was greater than 100 µM, the TGI [47] was greater than 100 µM and the TGI [48] was greater than 100 µM. For the same compound, the TGI [49] was greater than 100 µM, the TGI [50] was greater than 100 µM and the TGI [51] was greater than 100 µM. It also gave a TGI [52] greater than 100 µM, a TGI [53] greater than 100 µM and a TGI [54] greater than 100 µM. The TGI [55] was greater than 100 µM, the TGI [56] was greater than 100 µM and the TGI [57] was greater than 100 µM. For the same compound, the TGI [58] was greater than 100 µM and the TGI [59] was greater than 100 µM.
For CN(CCN(C)CCN(C)C(=O)Cc1ccc(Cl)c(Cl)c1)CCN1CCCC1, the TGI [1] was greater than 100 µM, the TGI [2] was 41.4 µM and the TGI [3] was greater than 100 µM. For the same compound, the TGI [4] was greater than 100 µM, the TGI [5] was greater than 100 µM and the TGI [6] was greater than 100 µM. It also gave a TGI [7] of 73.3 µM, a TGI [8] greater than 100 µM and a TGI [9] of 35.3 µM. The TGI [10] was greater than 100 µM, the TGI [11] was 30.9 µM and the TGI [12] was 58.1 µM. For the same compound, the TGI [13] was 41.5 µM, the TGI [14] was 61.3 µM and the TGI [15] was greater than 100 µM. It also gave a TGI [16] greater than 100 µM, a TGI [17] of 57.2 µM and a TGI [18] greater than 100 µM. For the same compound, the TGI [19] was 61.3 µM, the TGI [20] was 25.1 µM and the TGI [21] was 51.7 µM. The TGI [22] was greater than 100 µM, the TGI [23] was 34.1 µM and the TGI [24] was 21.6 µM. It also gave a TGI [25] of 77.1 µM, a TGI [26] greater than 100 µM and a TGI [27] greater than 100 µM. The TGI [28] was greater than 100 µM, the TGI [29] was greater than 100 µM and the TGI [30] was 82.1 µM. For the same compound, the TGI [31] was greater than 100 µM, the TGI [32] was 41.3 µM and the TGI [33] was 86.1 µM. For the same compound, the TGI [34] was 17.5 µM, the TGI [35] was greater than 100 µM and the TGI [36] was 53.9 µM. The TGI [37] was greater than 100 µM, the TGI [38] was greater than 100 µM and the TGI [39] was 22.8 µM. It also gave a TGI [40] of 33.8 µM, a TGI [41] of 32 µM and a TGI [42] greater than 100 µM. For the same compound, the TGI [43] was 27.3 µM, the TGI [44] was greater than 100 µM and the TGI [45] was 49.6 µM. It also gave a TGI [46] of 3.93 µM, a TGI [47] greater than 100 µM and a TGI [48] of 36.3 µM. The TGI [49] was 29.1 µM, the TGI [50] was 6.07 µM and the TGI [51] was 26 µM. For the same compound, the TGI [52] was 12.9 µM, the TGI [53] was 31.8 µM and the TGI [54] was 39 µM. The TGI [55] was greater than 100 µM, the TGI [56] was 24.1 µM and the TGI [57] was 36.6 µM. For the same compound, the TGI [58] was 16.6 µM and the TGI [59] was 46.2 µM.
O=C(O)CCC(=O)C(=O)O showed a TGI [1] greater than 100 µM, a TGI [2] greater than 100 µM and a TGI [3] greater than 100 µM. It also gave a TGI [4] greater than 100 µM, a TGI [5] greater than 100 µM and a TGI [6] greater than 100 µM. It also gave a TGI [7] greater than 100 µM, a TGI [8] greater than 100 µM and a TGI [9] greater than 100 µM. For the same compound, the TGI [10] was greater than 100 µM, the TGI [11] was greater than 100 µM and the TGI [12] was greater than 100 µM. It also gave a TGI [13] greater than 100 µM, a TGI [14] greater than 100 µM and a TGI [15] greater than 100 µM. The TGI [16] was greater than 100 µM, the TGI [17] was greater than 100 µM and the TGI [18] was greater than 100 µM. The TGI [19] was greater than 100 µM, the TGI [20] was greater than 100 µM and the TGI [21] was greater than 100 µM. For the same compound, the TGI [22] was greater than 100 µM, the TGI [23] was greater than 100 µM and the TGI [24] was greater than 100 µM. It also gave a TGI [25] greater than 100 µM, a TGI [26] greater than 100 µM and a TGI [27] greater than 100 µM. For the same compound, the TGI [28] was greater than 100 µM, the TGI [29] was greater than 100 µM and the TGI [30] was greater than 100 µM. For the same compound, the TGI [31] was greater than 100 µM, the TGI [32] was greater than 100 µM and the TGI [33] was greater than 100 µM. The TGI [34] was greater than 100 µM, the TGI [35] was greater than 100 µM and the TGI [36] was greater than 100 µM. The TGI [37] was greater than 100 µM, the TGI [38] was greater than 100 µM and the TGI [39] was greater than 100 µM. It also gave a TGI [40] greater than 100 µM, a TGI [41] greater than 100 µM and a TGI [42] greater than 100 µM. For the same compound, the TGI [43] was greater than 100 µM, the TGI [44] was greater than 100 µM and the TGI [45] was greater than 100 µM. For the same compound, the TGI [46] was greater than 100 µM, the TGI [47] was greater than 100 µM and the TGI [48] was greater than 100 µM. The TGI [49] was greater than 100 µM, the TGI [50] was greater than 100 µM and the TGI [51] was greater than 100 µM. For the same compound, the TGI [52] was greater than 100 µM, the TGI [53] was greater than 100 µM and the TGI [54] was greater than 100 µM. The TGI [55] was greater than 100 µM, the TGI [56] was greater than 100 µM and the TGI [57] was greater than 100 µM. For the same compound, the TGI [58] was greater than 100 µM and the TGI [59] was greater than 100 µM.
